Source: paper PMC10698238 (Planta medica, 2023)
Entries after “also recorded” stand apart in the source; their conditions may differ. Read-outs that look alike come from different tables or passages of the source. Marks after values point to notes of the source that are not given here.

Tests used:
[1] = tested on: Phyllosticta citricarpa; experiment: Inhibition of Phyllosticta citricarpa pycnidia development in citrus leaves; format: cell-based; settings: 21 days; for Decrease of the number of pycnidia produced by P. citricarpa in citrus leaves: 10 mg/mL
[2] = tested on: Phyllosticta citricarpa; experiment: Mycelial growth inhibition assay in petri dishes; format: cell-based; settings: 21 days; for Inhibition of mycelial growth of P. citricarpa: petri dishes, 10 mg/mL
[3] = tested on: Phyllosticta citricarpa; experiment: Inhibition of citrus black spot development in detached citrus fruits; format: in vivo; settings: 21 days; for Inhibition of CBS symptoms in citrus fruits: 10 mg/mL
[4] = tested on: PC3 (prostate cancer) cell line; experiment: Cytotoxicity assay; settings: read-out: IC50 PC3
[5] = tested on: A549 (non-small cell lung cancer) cell line; experiment: Cytotoxicity assay; settings: read-out: IC50 A549
[6] = tested on: HCT-116; settings: cited from earlier work
[7] = detached C. sinensis fruits, 10 μL of 10 mg/mL solution in methanol

Row | Molecule | Decrease of the number of pycnidia produced by P. citricarpa in citrus leaves [1] | Development of citrus black spot (CBS) symptoms [3, 7] | IC50 ([4]; Homo sapiens, 72 h) | IC50 ([5]; Homo sapiens, A549, 72 h) | IC50 ([4]; 72 h incubation) | IC50 ([5]; 72 h incubation) | further results
1 | Cc1cc(O)c2c(=O)c3c(C(=O)O)cccc3oc2c1 [8a, 8-hydroxy-6-methyl-9-oxo-9H-xanthene-1-carboxylic acid] | less than 14% |  |  |  |  |  | 
2 | Cc1cc(C(=O)O)c2c(=O)c3c(O)cccc3oc2c1 [8b, 8-hydroxy-3-methyl-9-oxo-9H-xanthene-1-carboxylic acid] | less than 14% |  |  |  |  |  | 
3 | COC(=O)Nc1nc2ccccc2[nH]1 [Carbendazim, carbendazim, reference compound] |  |  |  |  |  |  | Growth [in cm mean (± SD)] of Phyllosticta citricarpa in petri dishes ([2]; positive control, carbendazim 1.0 mg/mL): 0 ^* cm; Number of pycnidia produced in leaves by P. citricarpa ([1]; positive control): 0; Development of citrus black spot (CBS) symptoms ([3]; positive control, 50 μg carbendazim, detached fruits): −
4 | CC(=O)OC[C@]12Oc3c(-c4ccc(O)c5c4O[C@@]4(COC(C)=O)C(=C(O)C[C@@H](C)[C@H]4OC(C)=O)C5=O)ccc(O)c3C(=O)C1=C(O)C[C@@H](C)[C@H]2OC(C)=O [compound 3, phomoxanthone A] | 70.2% | − | 3.18 ± 0.02 µM | 4.95 ± 0.53 µM |  |  | Inhibition of CBS symptoms in citrus fruits ([3]; detached fruits): inhibited the development of citrus black spot symptoms; also recorded: completely inhibited CBS symptoms; also recorded: suppressed the hyphal growth and development of CBS lesions
5 | CC(=O)OC[C@]12Oc3ccc(-c4ccc(O)c5c4O[C@@]4(COC(C)=O)C(=C(O)C[C@@H](C)[C@H]4OC(C)=O)C5=O)c(O)c3C(=O)C1=C(O)C[C@@H](C)[C@H]2OC(C)=O [compound 4, phomoxanthone B] | 63.1% | + | 7.39 ± 0.62 µM | 10.4 ± 0.59 µM |  |  | 
6 | CC(=O)OC[C@]12Oc3ccc(-c4ccc5c(c4O)C(=O)C4=C(O)C[C@@H](C)[C@@H](OC(C)=O)[C@@]4(COC(C)=O)O5)c(O)c3C(=O)C1=C(O)C[C@@H](C)[C@H]2OC(C)=O [compound 5, dicerandrol C] | less than 14% | + | 2.23 ± 0.13 µM | 2.92 ± 0.24 µM |  |  | 
7 | C=C1[C@@H](C)[C@H]2[C@H](Cc3ccccc3)NC(=O)[C@]23[C@H](OC(C)=O)/C=C/[C@](C)(O)C[C@@H](C)C/C=C/[C@H]3[C@@H]1O [compound 6, cytochalasin H] | 78.3% | − |  |  | > 50 µM | > 50 µM | Inhibition of mycelial growth of P. citricarpa [2]: 80%; Inhibition of CBS symptoms in citrus fruits ([3]; detached fruits): inhibited the development of citrus black spot symptoms; also recorded: completely inhibited CBS symptoms; also recorded: suppressed the hyphal growth and development of CBS lesions
8 | C=C1[C@@H](C)[C@H]2[C@H](Cc3ccccc3)NC(=O)[C@]23[C@H](O)/C=C/[C@](C)(O)C[C@@H](C)C/C=C/[C@H]3[C@@H]1O [compound 7, cytochalasin J] | less than 14% | + |  |  | > 80 µM | > 80 µM | 
9 | CCCCCCCc1cc(=O)c2c(CC(=O)OC)cc(O)cc2o1 [compound 9, 5-carbomethoxymethyl-2-heptyl-7-hydroxychromone] | no activity | + | > 80 µM | > 80 µM |  |  | 
10 | Cc1occc(=O)c1O [compound 10, maltol] | less than 14% | + | > 80 µM | > 80 µM |  |  | 
11 | COc1cc2c(cc1OC)[C@]1(O)C(=O)c3ccc4c(c3O[C@@H]1CO2)C=CC(C)(C)O4 [tephrosin] |  |  |  |  |  |  | Activity against colorectal cancer cell line HCT-116 [6]: showed activity
12 | paecilin Q [compound 1] | 50.5% | + |  |  | > 80 µM | > 80 µM | Inhibition of mycelial growth of P. citricarpa [2]: 48.6%
13 | paecilin R [compound 2] | 35.5% | + |  |  | > 80 µM | > 80 µM | 
